# Source: US20100166714A1, “CARDIOVASCULAR STEM CELLS, METHODS FOR STEM CELL ISOLATION, AND USES THEREOF” (THE GENERAL HOSPITAL CORPORATION, priority 2006, published 2010)
# Tested on: FACS purified isl1+ progenitors spontaneously differentiated into smooth muscle cells
# Assay: Calcium imaging (fluo-4) after Angiotensin II stimulation
# Type: cell-based, mouse
# Settings: Angiotensin II 10^-7 M
# Experimental: Calcium imaging. FACS purified isl1^+ progenitors from double heterozygous isl1-mER-Cre-mER/R26R were plated on fibronectin coated glass chamber slides and allowed to spontaneously differentiate in DMEM/F12 containing B27 supplement, 2% FBS, and 10 ng/ml EGF. After 5 days in culture, cells were incubated for 20 minutes with 5 μM Fluo-4 AM (Molecular Probes) in HEPES buffer. Cells were then rinsed three times in HEPES buffer, pH 7.4, containing 1.5 mM Ca^2+. Angiotensin II was applied at the final concentration of 10^−7 M. Calcium imaging was acquired every 100 msec in 100 sec installment and analyzed using Metamorph software (Universal Imaging Corporation). Each experiment included three installments to cover the period of the agonist effect.
substance,measurement,setting,value
"Angiotensin II (DRVYIHPF; Angiotensin-2; UniProt P01019 25-32, looked up)",measured cells in which exposure induced a progressive cytosolic [Ca2+]i increase,"isl1+ progenitors from isl1-mER-Cre-mER/R26R mice after 5 days in culture, Fluo-4 AM",4 of 25
same,time at which the cytosolic [Ca2+]i increase reached the maximum,"responding cells, diminished thereafter",~70 s
